Data taken from PMC5315633 (ACS chemical biology, 2016).

Experiments:
Psf3 [1] = target: T1, Psf3 (Pseudomonas syringae, UniProt I6R485); test: NADPH consumption at […] nm, Michaelis-Menten fit; assay type: biochemical; conditions: 250 uM NADPH (saturating), 50 mM HEPES pH 7.5
T1 sequence (I6R485 1-295): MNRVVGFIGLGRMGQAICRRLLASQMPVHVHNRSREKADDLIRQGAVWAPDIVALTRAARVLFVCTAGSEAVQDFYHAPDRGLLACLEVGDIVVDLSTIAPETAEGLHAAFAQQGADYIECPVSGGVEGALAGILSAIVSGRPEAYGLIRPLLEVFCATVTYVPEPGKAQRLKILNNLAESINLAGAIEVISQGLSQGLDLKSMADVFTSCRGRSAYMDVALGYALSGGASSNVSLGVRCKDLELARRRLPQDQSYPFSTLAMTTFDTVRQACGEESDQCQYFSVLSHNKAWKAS

Psf3 [2] = target: T1, Psf3; test: […] NMR of reverse; assay type: biochemical; conditions: 2 mM NADP+, 1 mM (S)-2-HPP, pH 7.5, room temperature

**Q.** How did the KM (Psf3 [1]) turn out when CC(=O)CP(=O)(O)O [2-OPP] was run?
**A.** Its KM is “Kinetic parameters, with respect to 2-OPP and determined by monitoring the consumption of NADPH”.

**Q.** How did the “31P NMR of reverse (oxidation) reaction” value (Psf3 [2]) turn out when C[C@H](O)CP(=O)(O)O [(S)-2-HPP] was run?
**A.** Its value is “reaction with (S)-2-HPP resulted in a new peak that is consistent with 2-OPP”.
